{"source": "patent US20260041939A1", "about": "“METHODS FOR THE TREATMENT OF HY[…] TRANSCRANIAL-FOCUSED-ULTRASOUND” (SUNNYBROOK RESEARCH INSTITUTE, priority 2022, published 2026)", "origin": "cited, not measured here", "test_system": "c-FOS expression", "details": "microinjection into the tuberomammillary nucleus of rats", "data": [{"compound": "CCCC(C)C1(CC)C(=O)NC(=O)NC1=O", "note": "(stereo not drawn) [Pentobarbital, pentobarbital]", "values": [{"measurement": "c-FOS expression in the locus coeruleus", "result": "unchanged"}, {"measurement": "c-FOS expression in the tuberomammillary nucleus", "result": "suppress"}, {"measurement": "c-FOS expression in the ventrolateral preoptic nucleus (VLPO)", "result": "increase"}]}]}
